Test results: patent publication US12275712B2, “Triterpene derivatives as HIV inhibitors” (HETERO LABS LIMITED, priority 2019, dated 2025)

Columns and labels:
HIV-1 strain 92HT599 = experiment: Antiviral activity against HIV-1 strain 92HT599 in MT2 cells (p24 estimation); type: cell-based; conditions: Human immunodeficiency virus 1; HIV-1 strain 92HT599, MT2 cells, ~96 hours, p24; read-out: IC50
Procedure: MT2 cells were infected with HIV-1 strain 92HT599 (10 TCID 50/30000 cells). The infected cells were plated at the concentration of ˜30,000 cells per well in 96 well plate. Test compound was added to the micro plate in defined format with the final concentration of DMSO (vehicle) is not more than 1%. Incubation was carried out in CO2 incubator for ˜96 hours for viral infection. At the end of incubation period an aliquot from each well was taken for p24 estimation. The quantitation of p24 is an index for antiviral activity of the compound. Percent inhibition was calculated with reference to control values (vehicle controls). p24 estimation was carried out using Advance biosciences kit as per the procedure detailed by supplier.
The IC50 (nM) values are set forth in below Table-1.

pNL4-3 WT = experiment: Antiviral activity against pNL4-3 WT strain in MT4 cells (p24 estimation); type: cell-based, HIV-1; conditions: Human immunodeficiency virus 1, MT4, 96 h, read-out: pNL4-3 WT IC50
Procedure: (§1) MT4 cells were Transfected with HIV-1 Plasmid (pNL4-3-WT & V7A) (Cells were incubating with required number of TCID50 of HIV-1 for 1.5 h at 37° C.). After infection, the infected cells were plated at the concentration of 3×10^4 cells per well in 96 well plate. Test compound was added to the test plate in defined format with the final concentration of DMSO is not more than 1%. Incubation was carried out in CO2 incubator for 4 days for viral infection. At the end of incubation period an aliquot from each well was taken for p24 estimation. p24 estimation was carried out using Advance biosciences kit as per the procedure detailed by supplier.

pNL4-3 V7A = experiment: Antiviral activity against pNL4-3 V7A strain in MT4 cells (p24 estimation); type: cell-based, HIV-1; conditions: Human immunodeficiency virus 1, MT4, 96 h, read-out: pNL4-3 V7A IC50
Procedure: as §1

Row | SMILES | IC50 (HIV-1 strain 92HT599) [nM] | IC50 (pNL4-3 WT) [nM] | IC50 (pNL4-3 V7A) [nM]
1 | C[C@H](F)[C@@H](CN[C@]12CC[C@@H](C3(C)CC3)[C@@H]1[C@H]1CC[C@@H]3[C@@]4(C)CC[C@H](OC(=O)[C@H]5C[C@@H](C(=O)O)C5(C)C)C(C)(C)[C@@H]4CC[C@@]3(C)[C@]1(C)CC2)N1CCS(=O)(=O)CC1 [Example 12, (1R,3S)-3-((((1R,3aS,5aR,5bR,7aR,9S,11aR,11bR,13aR,13bR)-3a-(((2R,3 S)-2-(1,1-dioxidothiomorpholino)-3-fluorobutyl)amino)-5a,5b,8,8,11a-pentamethyl-1-(1-methylcyclopropyl)icosahydro-1H-cyclopentachrysen-9-yl)oxy)carbonyl)-2,2-di methylcyclobutane-1-carboxylic acid] | > 20 | 10 to 50 | > 100
2 | C[C@H](O)[C@H](CN[C@]12CC[C@@H](C3(C)CC3)[C@@H]1[C@H]1CC[C@@H]3[C@@]4(C)CC[C@H](OC(=O)[C@H]5C[C@@H](C(=O)O)C5(C)C)C(C)(C)[C@@H]4CC[C@@]3(C)[C@]1(C)CC2)N1CCS(=O)(=O)CC1 [Example 13, (1R,3S)-3-((((1R,3aS,5aR,5bR,7aR,9S,11aR,11bR,13aR,13bR)-3a-(((2S,3S)-2-(1,1-dioxidothiomorpholino)-3-hydroxybutyl)amino)-5a,5b,8,8,11a-pentamethyl-1-(1-methylcyclopropyl)icosahydro-1H-cyclopenta[a]chrysen-9-yl)oxy)carbonyl)-2,2-dimethylcyclobutane-1-carboxylic acid] | < 10 | < 10 | 1 to 50
3 | CC(C)S(=O)(=O)N1CCN([C@H](CN[C@]23CC[C@@H](C4(C)CC4)[C@@H]2[C@H]2CC[C@@H]4[C@@]5(C)CC[C@H](OC(=O)[C@H]6C[C@@H](C(=O)O)C6(C)C)C(C)(C)[C@@H]5CC[C@@]4(C)[C@]2(C)CC3)[C@@H](C)O)CC1 [Example 14, (1R,3S)-3-((((1R,3aS,5aR,5bR,7aR,9S,11aR,11bR,13aR,13bR)-3a-(((2R,3R)-3-hydroxy-2-(4-(isopropylsulfonyl)piperazin-1-yl)butyl)amino)-5a,5b,8,8,11a-pentamethyl-1-(1-methylcyclopropyl)icosahydro-1H-cyclopenta[a]chrysen-9-yl)oxy)carbonyl)-2,2-dimethylcyclobutane-1-carboxylic acid] | < 10 | < 10 | 1 to 50
4 | C=C(C)[C@@H]1CC[C@]2(NC[C@H]([C@@H](C)O)N3CCS(=O)(=O)CC3)CC[C@]3(C)[C@H](CC[C@@H]4[C@@]5(C)CC[C@H](OC(=O)[C@H]6C[C@@H](C(=O)O)C6(C)C)C(C)(C)[C@@H]5CC[C@]43C)[C@@H]12 [Example 15, (1R,3S)-3-((((1R,3aS,5aR,5bR,7aR,9S,11aR,11bR,13aR,13bR)-3a-(((2R,3R)-2-(1,1-dioxidothiomorpholino)-3-hydroxybutyl)amino)-5a,5b,8,8,11a-pentamethyl-1-(prop-1-en-2-yl)icosahydro-1H-cyclopenta[a]chrysen-9-yl)oxy)carbonyl)-2,2-dimethylcyclobutane-1-carboxylic acid] | < 10 | < 10 | 1 to 50
5 | CC1([C@@H]2CC[C@]3(NC[C@H](C(=O)O)N4CCS(=O)(=O)CC4)CC[C@]4(C)[C@H](CC[C@@H]5[C@@]6(C)CC[C@H](OC(=O)[C@H]7C[C@@H](C(=O)O)C7(C)C)C(C)(C)[C@@H]6CC[C@]54C)[C@@H]23)CC1 [Example 16, (1R,3S)-3-((((1R,3aS,5aR,5bR,7aR,9S,11aR,11bR,13aR,13bR)-3a-(((R)-2-carboxy-2-(1,1-dioxidothiomorpholino)ethyl)amino)-5a,5b,8,8,11a-pentamethyl-1-(1-methylcyclopropyl)icosahydro-1H-cyclopenta[a]chrysen-9-yl)oxy)carbonyl)-2,2-dimethylcyclobutane-1-carboxylic acid] | 10 to 20 | > 50 | > 100
6 | COCCOCC(=O)O[C@H](C)[C@@H](CN[C@]12CC[C@@H](C3(C)CC3)[C@@H]1[C@H]1CC[C@@H]3[C@@]4(C)CC[C@H](OC(=O)[C@H]5C[C@@H](C(=O)O)C5(C)C)C(C)(C)[C@@H]4CC[C@@]3(C)[C@]1(C)CC2)N1CCS(=O)(=O)CC1 [Example 17, (1R,3S)-3-((((1R,3aS,5aR,5bR,7aR,9S,11aR,11bR,13aR,13bR)-3a-(((2R,3R)-2-(1,1-dioxidothiomorpholino)-3-(2-(2-methoxyethoxy)acetoxy)butyl)amino)-5a,5b,8,8,11a-pentamethyl-1-(1-methylcyclopropyl)icosahydro-1H-cyclopentachrysen-9-yl)oxy)carbonyl)-2,2-dimethylcyclobutane-1-carboxylic acid] | < 10 | < 10 | 1 to 50
7 | COCCOCCOCCO[C@H](C)[C@@H](CN[C@]12CC[C@@H](C3(C)CC3)[C@@H]1[C@H]1CC[C@@H]3[C@@]4(C)CC[C@H](OC(=O)[C@H]5C[C@@H](C(=O)O)C5(C)C)C(C)(C)[C@@H]4CC[C@@]3(C)[C@]1(C)CC2)N1CCS(=O)(=O)CC1 [Example 18, (1R,3S)-3-((((1R,3aS,5aR,5bR,7aR,9S,11aR,11bR,13aR,13bR)-3a-(((12R,13R)-13-(1,1-dioxidothiomorpholino)-12-methyl-2,5,8,11-tetraoxatetradecan-14-yl)amino)-5a,5b,8,8,11a-pentamethyl-1-(1-methylcyclopropyl)icosahydro-1H-cyclopenta[a]chrysen-9-yl)oxy)carbonyl)-2,2-dimethylcyclobutane-1-carboxylic acid] | < 10 | < 10 | 1 to 50
8 | C=C(C)[C@@H]1CC[C@]2(NC[C@H]([C@@H](C)OC(=O)COCCOC)N3CCS(=O)(=O)CC3)CC[C@]3(C)[C@H](CC[C@@H]4[C@@]5(C)CC[C@H](OC(=O)[C@H]6C[C@@H](C(=O)O)C6(C)C)C(C)(C)[C@@H]5CC[C@]43C)[C@@H]12 [Example 19, (1R,3S)-3-((((1R,3aS,5aR,5bR,7aR,9S,11aR,11bR,13aR,13bR)-3a-(((2R,3R)-2-(1,1-dioxidothiomorpholino)-3-(2-(2-methoxyethoxy)acetoxy)butyl)amino)-5a,5b,8,8,11a-pentamethyl-1-(prop-1-en-2-yl)icosahydro-1H-cyclopentachrysen-9-yl)oxy)carbonyl)-2,2-dimethylcyclobutane-1-carboxylic acid] | < 10 | < 10 | 1 to 50
9 | C=C(C)[C@@H]1CC[C@]2(NC[C@H]([C@@H](C)O)N3CCS(=O)(=O)CC3)CC[C@]3(C)[C@H](CC[C@@H]4[C@@]5(C)CC[C@H](OC(=O)CC(C)(C)C(=O)O)C(C)(C)[C@@H]5CC[C@]43C)[C@@H]12 [Example 20, 4-(((1R,3aS,5aR,5bR,7aR,9S,11aR,11bR,13aR,13bR)-3a-(((2R,3R)-2-(1,1-dioxidothiomorpholino)-3-hydroxybutyl)amino)-5a,5b,8,8,11a-pentamethyl-1-(prop-1-en-2-yl)icosahydro-1H-cyclopentachrysen-9-yl)oxy)-2,2-dimethyl-4-oxobutanoic acid] | < 10 | < 10 | 1 to 50
